{
  "source": "paper PMC11726150",
  "about": "“Pre‐ADMET studies of 5‐(3′,4′‐dihydroxyphenyl)‐γ‐valerolactone, the bioactive intestinal metabolite of proanthocyanidins” (Archiv Der Pharmazie, 2024)",
  "key": {"Wt‐MDCK monolayers": {"system": "Wt‐MDCK monolayers", "assay": "In vitro transport study across 5‐day Wt‐MDCK monolayers", "type": "in vitro ADME, canine", "settings": "Wt‐MDCK model, VL 50 μM dosed (VLS formed as metabolite), controls 10 μM, N = 4", "description": "(§1) Caco2 cells between passage numbers 42–50 and MDCK cells between passage numbers 21–26 were used for transport studies; the assay was conducted as reported by Volpe^[ [33] ^] with slight modifications. Transport experiments were performed in 12‐well Transwell plates. Caco2 cells were seeded at a density of 60,000 cells/cm^2 and grown for 21 days, with change of media every 3 days, while MDCK cells were seeded at a density of 70,000 cells/cm^2 and grown for 5 days, changing the medium daily. The physiological and morphological formation of a confluent monolayer was evaluated by measuring the TEER value: Caco2 monolayers became confluent 1 week after seeding with TEER values greater than 450 Ω/cm^2, while MDCK monolayers became confluent 24 h after seeding with TEER values greater than 90 Ω/cm^2. Phenol red and serum‐free DMEM/F12 medium was used as transport buffer. For bidirectional transport, VL (50 μM) and control compound (propranolol and paclitaxel, 10 μM) were added to the apical side to determine apical to basolateral transport (A–B; absorptive direction) and to the basal side to determine basolateral to apical transport (B–A; secretory direction). The volume of the apical and basolateral chambers was 0.5 and 1.5 mL, respectively. Aliquots of 120 μL were taken from the basolateral (for A–B transport) or the apical (for B–A transport) chamber at 30, 60, 90, and 120 min. An equal volume was replaced with a transport buffer at every time point. At the beginning and at the end of the experiment, an aliquot was also taken from the apical or basolateral chamber for analysis of the drug. To determine the integrity of monolayers, TEER values were measured before and after the experiment. In addition, at the end of the experiment cells were collected and lysed to evaluate the compound intake. Briefly, cells were washed twice with cold PBS and 200 µL of cold MeOH was added to detach and lysate the cells; subsequently, cells were collected into lo‐bind Eppendorf and sonicated in ice for 10 min, then centrifuged for 15 min at 4°C at 14,000 rpm (Eppendorf Centrifuge 5430 R). The supernatant was collected and used for further analysis.\n(§2) The apparent permeability P app (cm/s) of compounds was calculated from the following equation (Equation 1), while P app (cm/s) of the metabolites was calculated from the equation (Equation 2): (1) Papp=dQ/dt×1/C×1/A.\n(§3) Equation (1) for calculating P app (cm/s) of tested reference compounds. (2) Papp=Metabolic cleareance/A.\n(§4) Equation (2) for calculating P app (cm/s) of compound metabolites.\n(§5) with Metabolic cleareance=Rate of metabolism/C and where dQ/dt is the rate of transport, C is the initial concentration in the donor compartment, and A is the surface area of the filter. To quantify the rate of transport, cumulative amounts of test compounds were plotted against time (min).\n(§6) Efflux ratio was calculated using the following equation (Equation 3)^[ [48] ^]: (3) Efflux ratio=Papp(B−A)/Papp(A−B)."}, "[1]": {"assay": "In vitro transport study across 5‐day Wt‐MDCK monolayers", "type": "in vitro ADME, canine", "settings": "dog; Wt‐MDCK model; Papp(B−A)/Papp(A−B); N = 4; read-out: Efflux ratio (mean ± SD)", "description": "as §1, §2, §3, §4, §5, §6"}, "P‐gp [2]": {"target": "T1, P‐gp (Homo sapiens, UniProt P08183)", "T1 construct": "P‐gp modulation was determined in differentiated Caco2 cells by Rh‐123 uptake assay; endogenous in cells; host or cells: differentiated Caco2 cells (21 days)", "T1 sequence (P08183 whole entry)": "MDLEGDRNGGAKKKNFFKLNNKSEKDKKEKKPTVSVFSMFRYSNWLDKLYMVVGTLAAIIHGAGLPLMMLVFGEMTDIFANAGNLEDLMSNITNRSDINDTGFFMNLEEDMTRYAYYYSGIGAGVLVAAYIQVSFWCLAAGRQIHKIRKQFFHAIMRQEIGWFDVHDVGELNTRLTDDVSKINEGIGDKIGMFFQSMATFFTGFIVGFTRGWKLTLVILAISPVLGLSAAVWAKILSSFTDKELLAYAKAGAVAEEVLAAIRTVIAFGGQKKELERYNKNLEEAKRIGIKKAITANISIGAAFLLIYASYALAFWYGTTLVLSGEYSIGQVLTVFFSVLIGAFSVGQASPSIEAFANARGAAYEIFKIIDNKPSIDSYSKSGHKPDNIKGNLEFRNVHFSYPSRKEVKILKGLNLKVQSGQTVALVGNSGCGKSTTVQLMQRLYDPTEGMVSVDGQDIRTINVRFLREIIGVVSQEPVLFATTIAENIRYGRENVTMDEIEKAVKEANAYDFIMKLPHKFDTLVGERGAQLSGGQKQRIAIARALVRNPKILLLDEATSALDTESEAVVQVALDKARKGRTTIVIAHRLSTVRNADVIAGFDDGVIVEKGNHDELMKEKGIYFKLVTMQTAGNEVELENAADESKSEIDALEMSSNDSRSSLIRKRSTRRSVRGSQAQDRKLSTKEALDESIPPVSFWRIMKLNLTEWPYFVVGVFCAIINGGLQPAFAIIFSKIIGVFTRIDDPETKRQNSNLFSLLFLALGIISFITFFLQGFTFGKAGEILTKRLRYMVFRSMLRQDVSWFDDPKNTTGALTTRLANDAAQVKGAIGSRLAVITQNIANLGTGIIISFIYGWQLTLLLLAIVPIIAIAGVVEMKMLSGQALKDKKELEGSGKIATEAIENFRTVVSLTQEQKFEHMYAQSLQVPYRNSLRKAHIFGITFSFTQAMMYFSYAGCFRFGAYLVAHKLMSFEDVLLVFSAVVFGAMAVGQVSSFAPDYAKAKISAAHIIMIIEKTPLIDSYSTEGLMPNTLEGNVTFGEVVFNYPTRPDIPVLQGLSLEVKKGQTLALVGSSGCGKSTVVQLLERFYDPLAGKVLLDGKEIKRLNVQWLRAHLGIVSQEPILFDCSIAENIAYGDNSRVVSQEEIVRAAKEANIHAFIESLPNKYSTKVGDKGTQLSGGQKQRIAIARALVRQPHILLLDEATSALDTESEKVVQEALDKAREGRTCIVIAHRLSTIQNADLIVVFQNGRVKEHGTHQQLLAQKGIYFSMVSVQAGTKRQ", "assay": "Rhodamine‐123 uptake assay, inhibition, differentiated Caco2 cells", "type": "cell-based", "settings": "VL initial concentration 50 and 25 µM, 90 min", "quoted_text": "To evaluate P‐gp inhibition on day 21, the medium was removed and 200 μL Hank's salt solution was added, the plate was then incubated for 40 min. […] After treatment cells were washed three times with ice‐cold PBS, and 200 μL of lysis buffer (0.1% Triton X 100 and 0.2 N NaOH) was added. The plate was kept on a shaker for 2 h at room temperature, and 100 μL of lysate was used to measure the Rh‐123 fluorescence at 485/529 nm. Further, 10 μL of lysate was taken in a separate 96‐well plate, and 190 μL Bradford reagent was added. The plate was shaken for 5–10 min, and absorbance was measured at 595 nm. Each sample was normalized by dividing the fluorescence of each sample by the total proteins present in the lysate.^[ [46] ^]"}, "P‐gp [3]": {"system": "P‐gp", "assay": "Rhodamine‐123 uptake assay, induction (48 h), differentiated Caco2 cells", "type": "cell-based, human", "settings": "2.5 to 10 µM, 48 h treatment", "description": "P‐gp modulation was determined in differentiated Caco2 cells by Rh‐123 uptake assay.^[ [49] ^] In brief, cells in the logarithmic growth phase with 70%–80% confluency were harvested and seeded at a density of 2 × 10^4/well of a 96‐well plate. Cells were allowed to grow for 21 days in a CO2 incubator changing the medium every other day.\nAfter treatment, cells were washed with Hank's buffer and 200 μL of phenol, and serum‐free DMEM/F12 medium containing […] of Rh‐123 was added and cells were incubated for 90 min. The final steps were as described previously."}, "BCRP": {"target": "T2, BCRP (Homo sapiens, UniProt Q9UNQ0)", "T2 construct": "performing the Rh‐123 uptake‐based efflux assay in the differentiated Caco2 cell line; endogenous in cells; host or cells: differentiated Caco2 cells (21 days)", "T2 sequence (Q9UNQ0 1-655)": "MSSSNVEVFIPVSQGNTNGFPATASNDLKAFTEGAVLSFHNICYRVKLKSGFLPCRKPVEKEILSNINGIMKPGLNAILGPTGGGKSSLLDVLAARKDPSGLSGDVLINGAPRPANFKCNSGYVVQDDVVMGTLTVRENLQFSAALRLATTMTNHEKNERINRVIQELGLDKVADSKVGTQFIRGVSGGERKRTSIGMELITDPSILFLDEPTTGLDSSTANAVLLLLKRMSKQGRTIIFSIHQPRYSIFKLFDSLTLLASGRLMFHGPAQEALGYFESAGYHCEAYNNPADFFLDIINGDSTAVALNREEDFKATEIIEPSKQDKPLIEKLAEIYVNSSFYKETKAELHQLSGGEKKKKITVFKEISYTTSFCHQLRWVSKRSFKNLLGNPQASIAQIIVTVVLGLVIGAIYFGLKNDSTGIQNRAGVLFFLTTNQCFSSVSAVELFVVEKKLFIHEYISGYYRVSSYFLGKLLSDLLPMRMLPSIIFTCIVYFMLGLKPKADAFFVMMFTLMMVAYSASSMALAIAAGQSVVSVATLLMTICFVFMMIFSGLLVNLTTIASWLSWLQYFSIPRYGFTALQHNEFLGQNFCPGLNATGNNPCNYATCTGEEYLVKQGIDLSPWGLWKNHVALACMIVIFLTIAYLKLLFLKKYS", "assay": "Rhodamine‐123 uptake assay, cotreatment with elacridar, differentiated Caco2 cells", "type": "cell-based", "settings": "at higher doses"}, "Caco2 monolayers": {"system": "Caco2 monolayers", "assay": "In vitro transport study across 21‐day Caco2 monolayers", "type": "in vitro ADME, human", "settings": "Caco2 model, VL 50 μM dosed (VLS formed as metabolite), controls 10 μM, N = 4", "description": "as §1, §2, §3, §4, §5, §6"}, "[4]": {"assay": "In vitro transport study across 21‐day Caco2 monolayers", "type": "in vitro ADME, human", "settings": "human, Caco-2, Caco2 model, N = 4", "description": "as §1, §2, §3, §4, §5, §6"}},
  "note": "Several values for one entry are separate records, joined by “and”; a condition that tells them apart may be missing. Equal values may be shown once. Where a name gives a salt, the structure may show the parent alone.",
  "data": [
    {"smiles": "O=C1CCC(Cc2ccc(O)c(OS(=O)(=O)O)c2)O1", "note": "(centres unmarked) [VLS, valerolactone sulfate]", "values": [
      {"measurement": "P app A–B (mean ± SD)", "setting": "Wt‐MDCK monolayers; absorptive direction", "result": "17.33 ×10⁻⁶ cm/s and 173.3 ± 25 ×10⁻⁶ cm/s"},
      {"measurement": "P app B–A (mean ± SD)", "setting": "Wt‐MDCK monolayers; secretory direction", "result": 14.43, "unit": "×10⁻⁶ cm/s"},
      {"measurement": "efflux ratio at 120 min", "setting": "[1]", "result": "0.843 ± 0.105"},
      {"measurement": "Rh‐123 uptake in cotreatment with CsA 20 µM", "setting": "P‐gp [2]", "result": "nonsignificant results"},
      {"measurement": "P‐gp induction", "setting": "P‐gp [3]", "result": "no significant data of P‐gp induction"},
      {"measurement": "effect on BCRP efflux transporter", "setting": "BCRP", "result": "slightly activates the BCRP efflux transporter"},
      {"measurement": "P app A–B (mean ± SD)", "setting": "Caco2 monolayers; absorptive direction", "result": 22.25, "unit": "×10⁻⁶ cm/s"},
      {"measurement": "P app B–A (mean ± SD)", "setting": "Caco2 monolayers; secretory direction", "result": 55.35, "unit": "×10⁻⁶ cm/s"},
      {"measurement": "Papp A→B at 120 min", "setting": "[4]; absorptive direction, VL 50 μM dosed (VLS formed as metabolite), controls 10 μM, read-out: P app A–B (mean ± SD)", "result": 22.3, "unit": "×10⁻⁶ cm/s"},
      {"measurement": "Papp B→A at 120 min", "setting": "[4]; secretory direction, VL 50 μM dosed (VLS formed as metabolite), controls 10 μM, read-out: P app B–A (mean ± SD)", "result": 55.4, "unit": "×10⁻⁶ cm/s"},
      {"measurement": "efflux ratio at 120 min", "setting": "[4]; Papp(B−A)/Papp(A−B), read-out: Efflux ratio (mean ± SD)", "result": "2.35 ± 0.341"}
    ]}
  ]
}
